Assay results as given in ChEMBL document CHEMBL5506042, “Discovery of the Clinical Candidate IDOR-1117-2520: A Potent and Selective Antagonist of CCR6 for Autoimmune Diseases” (J Med Chem, 2024).
One block for each compound: values may come before it.

Legend:
[1] = Intrinsic clearance in human liver microsomes at 1 uM measured for 15 mins in presence of NADPH regenerating system measured per mg protein by LC-MS/MS analysis; assay type: ADME, Microsome; conditions: read-out: CLH
[2] = molecular target: T1, C-C chemokine receptor type 6 (Homo sapiens, UniProt P51684); assay: Antagonist activity at human CCR6 expressed in HEK293 cells assessed as inhibition of CCL20-stimulated intracellular calcium mobilization by Fluo-8-AM based FLIPR analysis
T1 sequence (P51684 whole entry): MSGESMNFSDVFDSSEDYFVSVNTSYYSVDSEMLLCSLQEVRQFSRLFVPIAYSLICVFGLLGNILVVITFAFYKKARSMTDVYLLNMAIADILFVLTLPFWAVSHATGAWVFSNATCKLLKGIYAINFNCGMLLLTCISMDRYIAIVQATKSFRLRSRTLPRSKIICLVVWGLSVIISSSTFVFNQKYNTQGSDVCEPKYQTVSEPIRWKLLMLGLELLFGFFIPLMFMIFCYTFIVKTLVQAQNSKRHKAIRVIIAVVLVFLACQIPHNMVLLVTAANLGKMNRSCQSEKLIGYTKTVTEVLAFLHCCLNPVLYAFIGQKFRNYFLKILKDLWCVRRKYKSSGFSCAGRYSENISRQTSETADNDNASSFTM

[3] = molecular target: Voltage-gated inwardly rectifying potassium channel KCNH2 (Homo sapiens, UniProt Q12809); assay: Inhibition of hERG expressed in CHO cells assessed as inhibition of channel current at holding potential of -80 mV by QPatch assay
Chain of Voltage-gated inwardly rectifying potassium channel KCNH2 (Q12809 whole entry): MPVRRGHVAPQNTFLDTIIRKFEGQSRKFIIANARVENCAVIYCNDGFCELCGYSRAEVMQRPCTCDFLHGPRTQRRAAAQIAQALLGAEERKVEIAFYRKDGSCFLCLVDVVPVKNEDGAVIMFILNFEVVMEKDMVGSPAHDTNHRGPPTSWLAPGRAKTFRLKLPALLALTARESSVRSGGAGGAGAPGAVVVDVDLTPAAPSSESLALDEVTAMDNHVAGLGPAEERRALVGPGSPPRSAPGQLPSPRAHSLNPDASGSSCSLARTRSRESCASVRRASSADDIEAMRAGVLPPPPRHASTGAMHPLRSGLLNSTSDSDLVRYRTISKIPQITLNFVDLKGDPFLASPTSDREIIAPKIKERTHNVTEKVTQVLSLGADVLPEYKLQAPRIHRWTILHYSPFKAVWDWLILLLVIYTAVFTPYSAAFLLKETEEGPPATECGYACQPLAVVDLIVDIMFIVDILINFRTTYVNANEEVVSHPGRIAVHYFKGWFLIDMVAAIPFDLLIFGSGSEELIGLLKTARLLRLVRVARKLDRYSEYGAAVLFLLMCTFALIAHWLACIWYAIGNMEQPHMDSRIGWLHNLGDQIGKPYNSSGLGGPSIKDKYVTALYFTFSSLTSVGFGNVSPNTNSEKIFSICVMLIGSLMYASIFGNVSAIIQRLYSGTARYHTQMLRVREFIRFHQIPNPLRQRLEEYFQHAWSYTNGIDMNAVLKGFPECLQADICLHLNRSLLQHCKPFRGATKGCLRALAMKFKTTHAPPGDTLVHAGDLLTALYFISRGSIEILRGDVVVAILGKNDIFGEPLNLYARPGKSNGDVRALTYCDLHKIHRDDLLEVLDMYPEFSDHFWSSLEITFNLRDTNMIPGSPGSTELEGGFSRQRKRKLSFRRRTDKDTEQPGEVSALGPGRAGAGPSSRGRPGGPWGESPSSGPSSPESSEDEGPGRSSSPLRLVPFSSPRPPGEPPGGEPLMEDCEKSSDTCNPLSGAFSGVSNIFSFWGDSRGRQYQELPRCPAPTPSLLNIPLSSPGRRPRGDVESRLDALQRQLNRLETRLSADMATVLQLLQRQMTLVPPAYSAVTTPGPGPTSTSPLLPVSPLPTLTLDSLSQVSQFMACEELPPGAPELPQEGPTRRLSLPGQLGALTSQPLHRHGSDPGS

[4] = Drug metabolism in human liver microsomes assessed as dGSH trapping by measuring reactive metabolite formation at 10 uM measured after 60 mins in presence of dGSH and NADPH regenerating system by LC-MS/MS analysis; assay type: ADME, Microsome; conditions: 1 h
[5] = Cytotoxicity against human HepG2 cells assessed as reduction in cell viability incubated for 72 hrs by CellTiter-Glo assay
[6] = Dissociation constant, pKa of the compound by potentiometric titration based UV-Vis spectrophotometry
[7] = Lipophilicity, LogD of the compound in 1-Octanol/PBS at pH 7.4 by miniaturized shake flask method
HepaRG = assay: Cytotoxicity against human HepaRG cells assessed as leakage of intracellular LDH at 100 uM incubated for 24 hrs by spectrophotometry; assay type: toxicity, cell-based

Structure (SMILES): CC(C)c1ccc([C@](O)(c2cncc(N3CC[C@H](C(C)(C)O)C3)c2)C2(C)CN(C)C2)cc1
Drug metabolism [4]: < 100 pmol/mg/h

Structure (SMILES): CC(C)c1ccc([C@](O)(c2cncc(N3CCCC3)c2)C2(C)CN(C)C2)cc1
Drug metabolism [4]: 162 pmol/mg/h

Structure (SMILES): CC(C)c1ccc([C@](O)(c2cncc(N3CC[C@H](O)C3)c2)C2(C)CN(C)C2)cc1
Drug metabolism [4]: 504 pmol/mg/h

Structure (SMILES): CC(C)c1ccc([C@](O)(c2cncc(N3CCCC3=O)c2)C2(C)CN(C)C2)cc1
Drug metabolism [4]: < 100 pmol/mg/h

Structure (SMILES): CC(C)c1ccc([C@](O)(c2cncc(N3CC[C@](C)(O)C3)c2)C2(C)CN(C)C2)cc1
Drug metabolism [4]: 392 pmol/mg/h

Structure (SMILES): CC(C)c1ccc([C@](O)(c2cnnc(N3CCCC3)c2)C2(C)CN(C)C2)cc1
Drug metabolism [4]: 323 pmol/mg/h
microsomal CLint at […], 1 µM [1]: 475 µL/min/mg

Structure (SMILES): CC(C)c1ccc([C@](O)(c2cncc(N3CC4CC(C3)O4)c2)C2(C)CN(C)C2)cc1
Drug metabolism [4]: < 100 pmol/mg/h
microsomal CLint at […], 1 µM [1]: 20 µL/min/mg

Structure (SMILES): CC(C)c1ccc([C@](O)(c2cncc(N3CC[C@@H](O)C3)c2)C2(C)CN(C)C2)cc1
Drug metabolism [4]: 541 pmol/mg/h

Structure (SMILES): CC(C)c1ccc([C@](O)(c2cnnc(N3CC4(CC4)CC3=O)c2)C2(C)CN(C)C2)cc1
Drug metabolism [4]: < 100 pmol/mg/h
microsomal CLint at […], 1 µM [1]: < 10 µL/min/mg

Structure (SMILES): CC(C)c1ccc([C@](O)(c2cncc(N3CCOCC3)c2)C2(C)CN(C)C2)cc1
Drug metabolism [4]: 1021 pmol/mg/h
microsomal CLint at […], 1 µM [1]: 138 µL/min/mg

Structure (SMILES): CN1CC(C)(C(O)(c2ccc(OC(F)(F)F)cc2)c2cnnc(N3CCCC3)c2)C1 (racemic)
IC50 at 72 h [5]: > 25 µM

Structure (SMILES): CC(C)COc1cccc(C(O)(c2ccc(OC(F)(F)F)cc2)C2(C)CN(C)C2)c1 (racemic)
IC50 at 72 h [5]: 10 µM

Structure (SMILES): CN1CC(C)(C(O)(c2ccc(OC(F)(F)F)cc2)c2cccc(N3CCCC3)c2)C1 (racemic)
IC50 at 72 h [5]: 5 µM

Structure (SMILES): COc1cccc(C(O)(c2ccc(OC(F)(F)F)cc2)C2(C)CN(C)C2)c1 (racemic)
IC50 at 72 h [5]: > 25 µM
IC50 [3]: 0.22 µM

Structure (SMILES): COc1cncc(C(O)(c2ccc(OC(F)(F)F)cc2)C2(C)CN(C)C2)c1 (racemic)
IC50 at 72 h [5]: > 25 µM

Structure (SMILES): CN1CC(C)(C(O)(c2ccc(OC(F)(F)F)cc2)c2ccnc(N3CCCC3)c2)C1 (racemic)
IC50 at 72 h [5]: 9.2 µM

Structure (SMILES): CN1CC(C)(C(O)(c2ccc(Cl)cc2)c2ccc(OC(F)(F)F)cc2)C1 (racemic)
IC50 at 72 h [5]: 9.4 µM

More lines, main results first:

microsomal CLint at […], 1 µM [1]: 15 µL/min/mg
Structure (SMILES): CC(C)c1ccc([C@](O)(c2cccc(-c3noc(C(C)(O)C(F)(F)F)n3)c2)C2(C)CN(C)C2)cc1 (stereo partly specified)

IC50 [2]: > 20 µM
Structure (SMILES): CC(=O)N1CC(C)(C(O)(c2ccccc2)c2ccc(OC(F)(F)F)cc2)C1 (stereo unspecified)
IC50 [3]: > 20 µM

Drug metabolism [4]: 167 pmol/mg/h
microsomal CLint at […], 1 µM [1]: 26 µL/min/mg
Structure (SMILES): CC(C)c1ccc([C@](O)(c2cccc(-c3noc(C4CCOCC4)n3)c2)C2(C)CN(C)C2)cc1

Drug metabolism [4]: < 100 pmol/mg/h
Structure (SMILES): CC(C)c1ccc([C@](O)(c2cncc(N3C[C@@H](F)[C@@H](F)C3)c2)C2(C)CN(C)C2)cc1

microsomal CLint at […], 1 µM [1]: 20 µL/min/mg
Structure (SMILES): CC(C)c1ccc([C@](O)(c2cccc(-c3noc(CC(C)(C)O)n3)c2)C2(C)CN(C)C2)cc1

IC50 [2]: 1.44 µM
Structure (SMILES): CN1CCC(C)(C(O)(c2ccccc2)c2ccc(OC(F)(F)F)cc2)C1 (stereo unspecified)

IC50 [2]: > 20 µM
Structure (SMILES): CCCC1(C(O)(c2ccccc2)c2ccc(OC(F)(F)F)cc2)CN(C)C1 (stereo unspecified)

microsomal CLint at […], 1 µM [1]: 35 µL/min/mg
Structure (SMILES): CC(C)c1ccc([C@](O)(c2cccc(-c3noc(C4(O)CCC4)n3)c2)C2(C)CN(C)C2)cc1

IC50 [2]: 9.29 µM
Structure (SMILES): CN1CC(C(O)(c2ccccc2)c2ccc(OC(F)(F)F)cc2)C1 (stereo unspecified)
IC50 [3]: 0.52 µM

pKa [6]: 6.4
IC50 [2]: 0.763 µM
Structure (SMILES): CN1CC(C#N)(C(O)(c2ccc(OC(F)(F)F)cc2)c2cccc(Cl)c2)C1 (racemic)

logD [7]: > 4.1
pKa [6]: 7.9
Structure (SMILES): CN1CC(F)(C(O)(c2ccc(OC(F)(F)F)cc2)c2cccc(Cl)c2)C1 (racemic)
IC50 [3]: 0.19 µM

logD [7]: 2.1
pKa [6]: 9.1
IC50 [2]: 3.52 µM
Structure (SMILES): CN1CC(CO)(C(O)(c2ccc(OC(F)(F)F)cc2)c2cccc(Cl)c2)C1 (racemic)
IC50 [3]: 0.56 µM

logD [7]: 2.7
pKa [6]: 8.8
IC50 [2]: 2.06 µM
Structure (SMILES): CN1CC(O)(C(O)(c2ccc(OC(F)(F)F)cc2)c2cccc(Cl)c2)C1 (racemic)
IC50 [3]: 1.9 µM

IC50 [2]: 1.21 µM
Structure (SMILES): CC(C)c1ccc(C(O)(c2cccc(N3CCCC3)n2)C2(C)CN(C)C2)cc1 (racemic)

IC50 [2]: 8.8 µM
Structure (SMILES): CN1CC(C)(C(O)(c2ccc(OC(F)(F)F)cc2)c2ccccc2Cl)C1 (racemic)

pKa [6]: 8.1
IC50 [2]: 1.66 µM
Structure (SMILES): CN1CC(C(N)=O)(C(O)(c2ccc(OC(F)(F)F)cc2)c2cccc(Cl)c2)C1 (racemic)
IC50 [3]: 3.3 µM

logD [7]: 1.9
Structure (SMILES): CCOc1cncc(C(O)(c2ccc(OC(F)(F)F)cc2)C2(C)CN(C)C2)c1 (racemic)
IC50 at 72 h [5]: > 25 µM
Activity (HepaRG): Non-Toxic

microsomal CLint at […], 1 µM [1]: 68 µL/min/mg
Structure (SMILES): CC(C)c1ccc(C(O)(c2cccc(-c3nc(C4CCOCC4)no3)c2)C2(C)CN(C)C2)cc1 (single isomer, unassigned)
